# Measured values taken from US6485953B1, “Enzyme capable of hydorlyzing plaque, microorganism producing the same, and a composition comprising the same” (Lifenza Co. Ltd., priority 1999, dated 2002).
# How the values were obtained:
# [1] = system: dextranase activity of DXAMase; assay: Stability test: dextranase activity of DXAMase in presence of enzyme inhibitors and mouthwash chemicals; assay type: biochemical, Lipomyces starkeyi KSM 22
# Experimental: Dextranase activity is determined by measuring the amount of isomaltose produced by the reaction of an enzyme solution in a buffer solution containing 2% dextran for 15 min at 37° C. Dextranase 1 IU is defined as the amount of the enzyme that produces 1 μmol of isomaltose when reaction is carried out by using dextran as a substrate for 1 min at 37° C.
# (§1) To test the stabilization of dextranase and amylase activities of DXAMase by chemicals comprising mouthwash solution, the enzyme activity was measured in the presence of the enzyme inhibitors and chemicals in the mouthwash solutions in Table 2. In 1 mL of each chemical solution, 5 IU of DXAMase was added and reacted for 5 min at 37° C. Reaction was further carried out by adding 2% dextran or starch of an equal volume.
# [2] = system: amylase activity of DXAMase; assay: Stability test: amylase activity of DXAMase in presence of enzyme inhibitors and mouthwash chemicals; assay type: biochemical, Lipomyces starkeyi KSM 22
# Experimental: Amylase activity is measured by reacting the enzyme solution in a buffer solution containing 2% starch for 15 min at 37° C.
# as §1
# [3] = inhibitor concentration 10 mM, 5 IU DXAMase, 5 min at 37° C.
structure (smiles),measurement,setting,value
F [Fluoride],Relative activity (%) Dextranase,[1]; inhibitor concentration 0.05%,94%
same,Relative activity (%) Amylase,[2]; inhibitor concentration 0.05%,91%
O=C(O)CN(CCN(CC(=O)O)CC(=O)O)CC(=O)O [EDTA],Relative activity (%) Dextranase,[1]; [3],100%
same,Relative activity (%) Amylase,[2]; [3],100%
[H]/N=C(\N/C(=N/[H])NCCCCCCNC(=N)NC(=N)Nc1ccc(Cl)cc1)Nc1ccc(Cl)cc1 [Chlorhexydine],"effect on enzymatic activity of DXAMase (dextranase and amylase), in words","[1]; 5 IU DXAMase in 1 mL chemical solution, 5 min at 37° C.",did not decrease
same,Relative activity (%) Dextranase,[1]; inhibitor concentration 0.01%,98%
same,Relative activity (%) Dextranase,[1]; inhibitor concentration 0.02%,98%
same,Relative activity (%) Dextranase,[1]; inhibitor concentration 0.05%,97%
same,Relative activity (%) Dextranase,[1]; inhibitor concentration 0.1%,93%
same,Relative activity (%) Amylase,[2]; inhibitor concentration 0.01%,98%
same,Relative activity (%) Amylase,[2]; inhibitor concentration 0.02%,97%
same,Relative activity (%) Amylase,[2]; inhibitor concentration 0.05%,97%
same,Relative activity (%) Amylase,[2]; inhibitor concentration 0.1%,96%
CCCCCCCCCCCCOS(=O)(=O)[O-].[Na+] [SDS],Relative activity (%) Dextranase,[1]; inhibitor concentration 0.05%,91%
same,Relative activity (%) Dextranase,[1]; inhibitor concentration 0.5%,85%
same,Relative activity (%) Amylase,[2]; inhibitor concentration 0.05%,92%
same,Relative activity (%) Amylase,[2]; inhibitor concentration 0.5%,68%
CCO [Ethanol],Relative activity (%) Dextranase,[1]; inhibitor concentration 1%,99%
same,Relative activity (%) Dextranase,[1]; inhibitor concentration 5%,98%
same,Relative activity (%) Dextranase,[1]; inhibitor concentration 10%,98%
same,Relative activity (%) Dextranase,[1]; inhibitor concentration 20%,97%
same,Relative activity (%) Amylase,[2]; inhibitor concentration 1%,100%
same,Relative activity (%) Amylase,[2]; inhibitor concentration 5%,98%
same,Relative activity (%) Amylase,[2]; inhibitor concentration 10%,97%
same,Relative activity (%) Amylase,[2]; inhibitor concentration 20%,97%
O=C([O-])c1ccccc1.[Na+] [Sodium benzoate],Relative activity (%) Dextranase,[1]; inhibitor concentration 1%,100%
same,Relative activity (%) Amylase,[2]; inhibitor concentration 1%,100%
CC(O)CO (centres unmarked) [Propylene glycol],Relative activity (%) Dextranase,[1]; inhibitor concentration 1%,100%
same,Relative activity (%) Amylase,[2]; inhibitor concentration 1%,100%
